Assay results taken from patent publication US20250003989A1, “METHODS FOR TAUOPATHY DIAGNOSIS AND TREATMENT” (The Children`s Medical Center Corporation, priority 2021, published 2025).

Test system: naïve Tau
Test: In vitro second generation seeding without heparin, ThT assay
Settings: equimolar effective concentration of heparin as contained in the catalytic amount of 2b seed
Method: Seeds were generated following the procedure described above at 50 μM protein concentration. The sample was vigorously pipetted to evenly disperse fibrils, and was added at a 2.5 mol % (1.25 μM protein concentration) to a 50 μM sample of new protein. Aggregation was followed with ThioflavinT assays. Thioflavin T (ThT) assays for Beta-sheet content were conducted with 50 μM protein content, and […] ThT in a 384-well Corning plate. A BioTek synergy2 plate reader was used with temperature control set at 37° C.

Sequence of naïve Tau (as listed by the source): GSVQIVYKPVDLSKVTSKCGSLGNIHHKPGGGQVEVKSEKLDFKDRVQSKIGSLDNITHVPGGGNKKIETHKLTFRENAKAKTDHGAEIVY

Question: heparin was tested. Which “ThT fluorescence, heparin-only control” value did it give?
Answer: no detectable ThT fluorescence
